The test system of test [1] is ALOX12 protein level in HEK293 cells. As to the kind of experiment: ALOX12 protein level in HEK293 cells (immunoblot). In kind it is cell-based, human. The settings on record: HEK293 cells, 10 μM TPA, 1 hour, vs vehicle.
Description: As an alternative approach, multiple isoform-specific oligonucleotides (ASOs) complementary to different regions of ALOX12-AS1-201/202 were designed (FIG. 7A-C).
Relative quantification of proteins was performed as described previously [35, 106]. The cell lysates were prepared in 1×RIPA lysis and extraction buffer (catalogue number: 89900, ThermoFisher Scientific) supplemented with 1× Halt protease and phosphatase inhibitor cocktail (catalogue number: 78441, ThermoFisher Scientific). The protein lysates were denatured in Laemmli buffer containing 2% SDS, 10% glycerol, 0.002% bromophenol blue, 0.75 M Tris-HCl pH 6.8, and 100 mM DTT. The immunoblots were imaged using a ChemiDoc XRS+ system (Bio-Rad) and band intensities were quantified using ImageJ (version 1.48) Software [107]. Due to the possibility of inconsistency in the relative expression of housekeeping genes, we normalized all proteins of interest based on the intensity of the Oriole-stained protein profile [92].
The next test deals with ALOX12 mRNA. The settings on record: A431 cells, time-dependent; cited from earlier work.
The test system of a further test is ALOX12 AS1-201. As to the kind of experiment: Multiplex RT-PCR of ALOX12-AS1-201 in TPA-treated THP-1 derived MLCs. In kind it is cell-based, human. The settings on record: TPA treated (72 hours) MLCs vs vehicle treated THP-1 cells. As for the experimental part: (§1) Phorbol ester (12-O-Tetradecanoylphorbol 13-acetate: TPA) is an activator of protein kinase C (PKC) that has been frequently used for inducing the differentiation of different cell types, including myeloid cells. Activation of human monocytic cells affects ALOX expression. Therefore, we induced differentiation of monocytic THP-1 cells to macrophage-like cells (MLCs) with 100 nM TPA [91, 92] and monitored the ALOX12 protein level as well as nucleo-cytoplasmic translocation of ALOX12-AS1-201. […] We concurrently monitored expression of the integrin subunit a M (ITGAM), also known as CD11b, which regulates myeloid cell polarization and is expressed in macrophages to facilitate adhesion, migration, chemotaxis, and accumulation during inflammation. […]
(§2) Total RNA from different cell lines was extracted with Trizol reagent (Catalog number: 15596026; ThermoFisher Scientific, Canada) as per the manufacturer's recommended protocol. […] Absolute quantification of ALOX12-AS1 lncRNA isoforms was performed in a Mastercycler®ep realplex real-time PCR system (Eppendorf, Hamburg, Germany) using SYBR green dye (Catalog number: S7563; ThermoFisher Scientific). […] Real-time PCR data quality control calculations were determined by the SAS program as described previously and the calculated PCR efficiency was between 95%-99%. […] Results were expressed as copy number of specific isoforms per 100 ng of total RNA.

For another test, the system named is THP-1 cells. Kind of test: TPA-induced differentiation of THP-1 cells to macrophage-like cells (ITGAM immunoblot, CD68 immunofluorescence). It counts as cell-based, human. The settings on record: 100 nM TPA. As to the method:
Phorbol ester (12-O-Tetradecanoylphorbol 13-acetate: TPA) is an activator of protein kinase C (PKC) that has been frequently used for inducing the differentiation of different cell types, including myeloid cells. Activation of human monocytic cells affects ALOX expression. Therefore, we induced differentiation of monocytic THP-1 cells to macrophage-like cells (MLCs) with 100 nM TPA [91, 92] and monitored the ALOX12 protein level as well as nucleo-cytoplasmic translocation of ALOX12-AS1-201. […] We concurrently monitored expression of the integrin subunit a M (ITGAM), also known as CD11b, which regulates myeloid cell polarization and is expressed in macrophages to facilitate adhesion, migration, chemotaxis, and accumulation during inflammation. […] CD68 is a transmembrane glycoprotein that is mainly located in the endosomal/lysosomal compartment but can rapidly shuttle to the cell surface in myeloid cells. […] Based on these observations, we performed nuclear and cytoplasmic fractionation at 72 hours of TPA treatment.
Relative quantification of proteins was performed as described previously. […] The immunoblots were imaged using a ChemiDoc XRS+ system (Bio-Rad) and band intensities were quantified using ImageJ (version 1.48) Software. […]

The subject of another test is ALOX12-AS1-202. Kind of test: Multiplex RT-PCR of ALOX12-AS1-202 in TPA-treated THP-1 derived MLCs. The settings on record: TPA treated (72 hours) MLCs vs vehicle treated THP-1 cells. It counts as cell-based, human. As for the experimental part: as §1, §2
The next test deals with ALOX12-AS1-201 lncRNA. As to the kind of experiment: Nucleo-cytoplasmic translocation of ALOX12-AS1-201 in THP-1 cells (FISH, fractionation, quantitative RT-PCR). It counts as cell-based, human.

Description for ALOX12-AS1-201 lncRNA: Therefore, we induced differentiation of monocytic THP-1 cells to macrophage-like cells (MLCs) with 100 nM TPA [91, 92] and monitored the ALOX12 protein level as well as nucleo-cytoplasmic translocation of ALOX12-AS1-201. […] Based on these observations, we performed nuclear and cytoplasmic fractionation at 72 hours of TPA treatment.
Total RNA from different cell lines was extracted with Trizol reagent (Catalog number: 15596026; ThermoFisher Scientific, Canada) as per the manufacturer's recommended protocol. Total RNA (1-5 μg) was treated with RNase-free DNase I (Catalog number: M0303, New England Biolabs Inc., USA) at 37° C. for 15 min, subsequently heat-inactivated at 75° C. for 10 min and used for cDNA synthesis. […] Absolute quantification of ALOX12-AS1 lncRNA isoforms was performed in a Mastercycler®ep realplex real-time PCR system (Eppendorf, Hamburg, Germany) using SYBR green dye (Catalog number: S7563; ThermoFisher Scientific). […] Real-time PCR data quality control calculations were determined by the SAS program as described previously [101] and the calculated PCR efficiency was between 95%-99%. Quantitative RT-PCR was conducted for different cell-line derived RNAs, and the specificity of each amplified product was confirmed by melting curve analysis. Results were expressed as copy number of specific isoforms per 100 ng of total RNA.

Consider `CCCCCCCCCCCCCC(=O)O[C@@H]1[C@@H](C)[C@@]2(O)[C@@H](C=C(CO)C[C@]3(O)C(=O)C(C)=C[C@@H]23)[C@@H]2C(C)(C)[C@]12OC(C)=O` [TPA, 12-O-Tetradecanoylphorbol 13-acetate], for which the ALOX12 protein level result in test [1] is “significant reduction”. Besides, in the test with ALOX12 mRNA, the “expression of ALOX12 mRNA” value is reported as “increased”. Moreover, in the test with ALOX12 AS1-201, the “ALOX12 AS1-201 level” value is on record as “relatively unaltered”. For the same compound, in the test on THP-1 cells (immunoblot), the ITGAM expression entry is “expressed at 72 hours”. Moreover, the “CD68 expression and localization” value in the test on THP-1 cells (immunofluorescence) was “gradually increasing expression and translocation of CD68 to endosomal structures”. In addition, in the test on ALOX12-AS1-202, the ALOX12-AS1-202 level result was “dramatic reduction”. Besides, in the test on ALOX12-AS1-201 lncRNA (THP-1 cells, 100 nM TPA, FISH), the “time to translocation of ALOX12-AS1-201 lncRNA to the cytosol” value was at most 1 h. Besides, the ALOX12-AS1-201 cytosolic abundance result in the test on ALOX12-AS1-201 lncRNA (TPA-differentiated MLCs, 72 hours, vs vehicle (DMSO) treated THP-1 cells, quantitative RT-PCR) is reported as “significant increase”.

These data come from patent publication US20230407296A1, “Method to Regulate ALOX12-AS1 IncRNA-Mediated Alteration of ALOX12 Protein and to Screen for Novel Drugs to Alter ALOX12 Protein Level” (priority 2021, published 2023).
